Assays:
GzmB [1] = molecular target: T1, GzmB (Homo sapiens, UniProt P10144); test: Inhibition of Cell Detachment by GzmB Assay (Example D7); type: cell-based; conditions: 50 uM inhibitor; 100 nM GzmB; HDFa primary human fibroblasts; 7 hours; MTS absorbance 490 nm; read-out: Percent Inhibition of cell detachment at 50 uM
Protocol: HDFa primary human fibroblasts were plated at 10 k/well in 200 ul, approximately 20 hrs before treatment. The next day, controls and 100 nM GzmB (recombinant, human) plus or minus inhibitor treatments were prepared in serum-free media. GzmB and inhibitor were incubated for 20 minutes at RT before adding to cells. Before addition, media and serum was removed from the cells and the cells were washed with PBS (1×), using pipettes to prevent disturbing the cells. Treatment preparations (100 ul) were added to the wells and incubated for 7 hours in a tissue culture incubator. After 7 hours, media and treatments were removed and the cells were washed with PBS (1×) to removed detached cells, using pipettes only. Phase pictures were taken then the PBS was removed and replaced with 100 uL of serum-free media and 20 uL of MTS and the cells were allowed to incubate for 3 hours in a cell culture incubator. After 3 hours the absorbance was read at 490 nm and a percent inhibition value for the treatments with inhibitors was determined from the control wells.

GzmB [2] = molecular target: T1, GzmB; test: Inhibition of Fibronectin Cleavage by GzmB (Example D8); type: biochemical; conditions: 20 nM granzyme B, Hilyte Fluor 488 labeled Fibronectin, 30° C.; for inhibition at 0.62 µM: 0.62 uM inhibitor, read-out: Percent Inhibition at Inhibitor Concentration 0.62 uM; for inhibition at 5.56 µM: 5.56 uM inhibitor, read-out: Percent Inhibition at Inhibitor Concentration 5.56 uM; for inhibition at 50 µM: 50 uM inhibitor, read-out: Percent Inhibition at Inhibitor Concentration 50 uM
Protocol: Black, 96 well high-binding assay plates (Griener Bio-one) were treated overnight at 4° C. with 40 uL of 8 ug/mL Hilyte Fluor 488 labeled Fibronectin (Cytoskeleton, Inc). After fibronectin coating, plates were washed 3 times in buffer (20 mM Tris-HCl, pH 7.4, 20 mM NaCl) then once with granzyme B assay buffer (50 mM HEPES, pH 7.5, 0.1% CHAPS). After washing, 50 uL of granzyme B assay buffer was added to each fibronectin-coated well. In a separate non-binding 96 well assay plate 5 uL of 20× inhibitor serial dilution stocks were added to 45 uL of 2.22× GzmB mix to establish inhibition (enzyme/inhibitor mixes were all prepared in granzyme B assay buffer and were incubated first at room temperature for 20 minutes, then at 30° C. for another 10 minutes). After incubation, 50 uL of this 2× enzyme/inhibitor mix was added to the corresponding coated well to initiate fibronectin cleavage (20 nM final granzyme B concentration, 8-point inhibitor dilution series starting at 50 uM). The assay was conducted at 30° C. in the TECAN plate reader (TECAN INFINITE® M1000 Pro), which was programmed to monitor the kinetic fluorescence polarization signal (filter set Ex/Em 470 nm/527 nm) with readings taken every minute, for 1 hour. Proteolytic activity was evaluated as the rate of fluorescence enhancement in the parallel emission over the linear range of the reaction. % Inhibition values were calculated from assay controls and the resulting date is shown in Table 7.

T1 sequence (P10144 21-247): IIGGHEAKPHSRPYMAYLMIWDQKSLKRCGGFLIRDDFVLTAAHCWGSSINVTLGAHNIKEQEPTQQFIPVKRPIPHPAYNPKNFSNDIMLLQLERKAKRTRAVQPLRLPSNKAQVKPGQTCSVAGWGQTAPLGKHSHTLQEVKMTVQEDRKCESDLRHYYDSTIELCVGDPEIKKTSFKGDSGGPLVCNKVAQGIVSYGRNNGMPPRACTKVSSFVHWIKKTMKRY

Row | inhibition at 50 µM (GzmB [1]) | inhibition at 0.62 µM (GzmB [2]) | inhibition at 5.56 µM (GzmB [2]) | inhibition at 50 µM (GzmB [2]) | SMILES
1 | 91% | – | – | – | CC(C)C(NC(=O)CCC(=O)O)c1ccc(C(=O)NCC(=O)NCc2nn[nH]n2)[nH]1 (racemic) [Compound C3, 3-{[2-methyl-1-[5-({[(2H-1,2,3,4-tetrazol-5-ylmethyl)carbamoyl]methyl}carbamoyl)-1H-pyrrol-2-yl]propyl]carbamoyl}propanoic acid]
2 | – | 28% | 56% | 78% | CC(C)C(NC(=O)CCC(=O)O)c1ccc(C(=O)N2CCC[C@H]2C(=O)NCc2nn[nH]n2)[nH]1 (mixture of isomers) [Compound C4, 3-{[2-methyl-1-{5-[(2S)-2-[(2H-1,2,3,4-tetrazol-5-ylmethyl)carbamoyl]pyrrolidine-1-carbonyl]-1H-pyrrol-2-yl}propyl]carbamoyl}propanoic acid]
3 | – | 63% | 83% | 94% | O=C(O)CCC(=O)NC(c1ccc(C(=O)N2C[C@@H](O)C[C@H]2C(=O)NCc2nn[nH]n2)[nH]1)C1CCCC1 (stereo partly drawn) [Compound C8, 3-{[cyclopentyl({5-[(2S,4S)-4-hydroxy-2-[(2H-1,2,3,4-tetrazol-5-ylmethyl)carbamoyl]pyrrolidine-1-carbonyl]-1H-pyrrol-2-yl})methyl]carbamoyl}propanoic acid]

— patent publication US9458138B1, “Pyrrole compounds as granzyme B inhibitors” (viDA Therapeutics Inc., priority 2014, dated 2016)
